# Assay results: US12213960B2, “Method of preventing or improving UV-induced skin damage using hydroangenol as active ingredient” (COSMAXBIO CO., LTD., priority 2017, dated 2025)
# Assays:
# Assay type in all cases: cell-based, human
# [1] = tested on: procollagen type 1 secretion in dermal Hs68 fibroblasts; assay: Analysis of procollagen type-1 content (PIP EIA)
# Experimental: Samples obtained in Examples 1 or 2 were measured in regards to the effect of increasing procollagen type 1 in dermal Hs68 fibroblasts. In order to evaluate the effect of each sample in increasing secretion of procollagen type 1, the cells were seeded into a 24-well microplate at a density of 1.0×10^5 cells/well and stabilized for 24 hours. Next, the culture medium was exchanged to a new one supplemented with the sample, and the cells were incubated for 24 hours. For UV-B irradiation, the culture medium was removed, washed with PBS, and exposed to UV-B radiation at 15 mJ/cm^2. After an incubation of 48 hours in a culture medium supplemented with the sample, the resultant supernatant was measured in regards to the degree of secretion of procollagen type 1 by using a Procollagen type 1 C-peptide (PIP) EIA kit (Mk101, Takara, Japan).
# [2] = tested on: MMP-1 secretion in dermal Hs68 fibroblasts; assay: Quantitative analysis of MMP-1 secretion (ELISA), dermal cells
# Experimental: (§1) Samples obtained in Examples 1 and 2 were measured in regards to the inhibitory effect against the secretion of MMP-1 in epidermal HaCat keratinocytes and dermal Hs68 fibroblasts. In order to evaluate the effect of each sample in reducing MMP-1, the cells were seeded into a 24-well microplate at a density of 1.0×10^5 cells/well and stabilized for 24 hours. Next, the culture medium was exchanged to a new one supplemented with the sample, and the cells were incubated for 24 hours. For UV-B irradiation, the culture medium was removed, washed with PBS, and exposed to UV-B radiation at 15 mJ/cm^2. After an incubation of 48 hours in a culture medium supplemented with the sample, the resultant supernatant was measured in regards to the degree of secretion of MMP-1 by using an MMP-1 Human ELISA kit (ab100603, abcam, US).
# [3] = tested on: hyaluronic acid secretion in epidermal HaCaT keratinocytes; assay: Analysis of hyaluronic acid content (ELISA), epidermal cells
# Experimental: (§2) Samples obtained in Examples 1 and 2 were measured in regards to the effect of increasing hyaluronic acid in epidermal HaCaT keratinocytes and dermal Hs68 fibroblasts. In order to evaluate the effect of each sample in increasing hyaluronic acid, the cells were seeded into a 24-well microplate at a density of 1.0×10^5 cells/well and stabilized for 24 hours. Next, the culture medium was exchanged to a new one supplemented with the sample, and the cells were incubated for 24 hours. For UV-B irradiation, the culture medium was removed, washed with PBS, and exposed to UV-B radiation at 15 mJ/cm^2. After an incubation of 24 hours in a culture medium supplemented with the sample, the resultant supernatant was measured in regards to the degree of secretion of hyaluronic acid by using a TECOR Hyaluronic Acid PLUS ELISA kit (TE 1018-2, TECO Medical Group, US).
# [4] = tested on: hyaluronic acid secretion in dermal Hs68 fibroblasts; assay: Analysis of hyaluronic acid content (ELISA), dermal cells
# Experimental: as §2
# [5] = tested on: MMP-1 secretion in epidermal HaCat keratinocytes; assay: Quantitative analysis of MMP-1 secretion (ELISA), epidermal cells; conditions: epidermal cells damaged by UV-B radiation of 15 mJ/cm2
# Experimental: as §1
# [6] = tested on: HaCaT keratinocytes; assay: MTT assay of cell viability/proliferation after UV-B damage, epidermal cells
# Experimental: (§3) Samples obtained in Examples 1 and 2 were measured in regards to the effect in recovering the skin damaged from UV-B exposure. In this experiment, HaCaT keratinocytes and HS68 fibroblasts were used as epidermal and dermal cells, respectively. In order to evaluate the possible efficacy of each sample in preventing or improving the UV-induced damage of skin cells, the cells were seeded into a 96-well microplate at a density of 1.0×10^4 cells/well and stabilized for 24 hours. Next, the culture medium was exchanged to a new one supplemented with the sample, and the cells were incubated for 24 hours. For UV-B irradiation, the culture medium was removed, washed with PBS, and exposed to UV-B radiation at 15 mJ/cm^2. After an incubation of 24 hours in a culture medium supplemented with the sample, the cells were subjected to an MTT assay to measure cell viability. The MTT assay measures the reduction of a tetrazolium component (MTT) into a formazan product by the mitochondria of viable cells. More specifically, 50 μl of a 5 mg/ml MTT solution was added to the cells, and after an incubation of 4 hours, the culture solution was completely removed and cells were dissolved in DMSO. The absorbance of the DMSO solution in the microplate was quantified by spectrophotometry at 540 nm.
# [7] = tested on: HS68 fibroblasts; assay: MTT assay of cell viability/proliferation after UV-B damage, dermal cells
# Experimental: as §3
# [8] = 1 μM hydrangenol, dermal cells, UV-B 15 mJ/cm2
# [9] = dermal cells damaged by UV-B radiation of 15 mJ/cm2
# [10] = 1 μM hydrangenol, epidermal cells, UV-B 15 mJ/cm2
# [11] = epidermal cells damaged by UV-B radiation of 15 mJ/cm2
smiles,measurement,setting,value
"O=C1OC(c2ccc(O)cc2)Cc2cccc(O)c21 (stereo not drawn) [hydrangenol, 8-hydroxy-3-(4-hydroxyphenyl)-3,4-dihydroisochromen-1-one]",procollagen production effect compared with 10 μM EGCG,[1]; [8],equivalent to 10 μM EGCG
same,production of procollagen,[1]; [9],increased the production of procollagen
same,production of MMP-1,[2]; [9],inhibited the production of MMP-1 in a concentration-dependent manner
same,inhibitory effect against the production of MMP-1 compared with EGCG,"[2]; dermal cells, same concentration as EGCG",far superior to the EGCG
same,effect in producing hyaluronic acid,[3]; [10],excellent effect in producing hyaluronic acid
same,production of hyaluronic acid,[3]; [11],increased the production of hyaluronic acid
same,effect in producing hyaluronic acid,[4]; [8],excellent effect in producing hyaluronic acid
same,production of hyaluronic acid,[4]; [9],increased the production of hyaluronic acid
same,production of MMP-1,[5],inhibited the production of MMP-1 in a concentration-dependent manner
same,cell proliferation effect compared with 10 μM EGCG,[6]; [10],equivalent to 10 μM EGCG
same,cell proliferation,[6]; [11],effective in promoting cell proliferation
same,cytotoxicity,[6]; [11],non-cytotoxic
same,cell proliferation effect compared with 10 μM EGCG,[7]; [8],equivalent to 10 μM EGCG
same,cell proliferation,[7]; [9],effective in promoting cell proliferation
same,cytotoxicity,[7]; [9],non-cytotoxic
